In paper PMC4169639 (BMC Biology, 2014):

Columns and labels:
[1] = biological target: T1, PCTP START domain (GSV-PCTP) (Homo sapiens, UniProt Q9UKL6); experiment: IgG-bead immunoisolation from yeast lysate, LC-MS of bound metabolites; assay type: binding; settings: endogenous yeast metabolite, enriched over GV control
T1 sequence (Q9UKL6 1-212 limits assumed): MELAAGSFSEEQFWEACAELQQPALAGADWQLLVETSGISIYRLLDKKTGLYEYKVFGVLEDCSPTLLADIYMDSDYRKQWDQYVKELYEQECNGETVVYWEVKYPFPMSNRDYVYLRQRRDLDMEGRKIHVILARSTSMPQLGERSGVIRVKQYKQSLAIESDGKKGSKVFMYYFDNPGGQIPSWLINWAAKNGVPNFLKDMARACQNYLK

[2] = biological target: T2, StAR START domain (GSV-StAR) (Mus musculus, UniProt P51557); experiment: as above; assay type: binding; settings: endogenous yeast metabolite, enriched over GV control
T2 sequence (P51557 66-274 limits assumed): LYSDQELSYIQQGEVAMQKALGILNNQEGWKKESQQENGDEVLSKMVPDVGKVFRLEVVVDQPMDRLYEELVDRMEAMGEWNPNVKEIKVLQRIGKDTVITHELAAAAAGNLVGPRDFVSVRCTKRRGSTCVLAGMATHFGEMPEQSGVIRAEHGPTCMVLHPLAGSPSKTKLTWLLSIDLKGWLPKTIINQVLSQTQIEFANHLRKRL

| SMILES | IgG-bead immunoisolation from yeast lysate, LC-MS of bound metabolites [1] | IgG-bead immunoisolation from yeast lysate, LC-MS of bound metabolites [2] |
| --- | --- | --- |
| CC(C)=CCC[C@@H](C)[C@H]1CC[C@@]2(C)C3=C(CC[C@]12C)[C@@]1(C)CC[C@H](O)C(C)(C)[C@@H]1CC3 [lanosterol] | several metabolites that were shared with StAR (e.g. lanosterol, squalene | lanosterol and squalene, were also significantly enriched for the START domain from StAR |
| CCCCC/C=C\C/C=C\CCCCCCCC(N)=O [linoleamide] | lipids including sphinganine, sphingosine, behenic acid and linoleamide |  |
| CC(C)=CCC/C(C)=C/CC/C(C)=C/CC/C=C(\C)CC/C=C(\C)CCC=C(C)C [squalene] | several metabolites that were shared with StAR (e.g. lanosterol, squalene | lanosterol and squalene, were also significantly enriched for the START domain from StAR |
